Experimental data from PMC5400251, “Effect of quinoline based 1,2,3-triazole and its structural analogues on growth and virulence attributes of Candida albicans” (PLoS ONE, 2017).
≈ marks a conversion by molar mass, not a printed value.

Assays:
C. glabrata ATCC 90030 = experiment: Broth dilution IC50 determination; assay type: cell-based; settings: Nakaseomyces glabratus, ATCC90030, SD broth, 37°C, 24 h, OD 600 nm, read-out: Anti-Candida Activity (IC50± S.D.) C. glabrata ATCC90030
Procedure: (§1) Broth dilution technique was employed to determine the IC50 values of all the synthesized 1,2,3 triazole derivatives (3a-c) against C. albicans ATCC 90028, C. glabrata ATCC 90030, C. tropicalis ATCC 750 and four clinical isolates of C. albicans namely D27, D31, D39 (FLC-sensitive) and D15.9 (FLC-resistant). The strains were maintained on yeast extract:peptone:dextrose ([…]) nutrient agar (2.5%) slants at 4°C. The test compounds were dissolved in DMSO with less than 4% concentration of it in the final test volume. Different concentrations (1000… 7.8 μg/mL) of test compounds in Sabouraud dextrose (SD) broth medium were dispensed into the wells, then inoculated with the test organism with approx. 2.5 × 10^3 cells/mL and incubated at 37°C for 24 h. After incubation period, the optical density was measured at 600 nm by using Thermo Scientific Multiskan Go plate reader. […] All the experiments were done in triplicate at separate times.

[1] = test system: C. albicans D31 (FLC-sensitive clinical isolate); experiment: Broth dilution IC50 determination; assay type: cell-based; settings: Candida albicans, 24 h; read-out: Anti-Candida Activity (IC50± S.D.) C. albicans D31
Procedure: as §1

C. albicans ATCC 90028 = experiment: Broth dilution IC50 determination; assay type: cell-based; settings: Candida albicans, ATCC90028, SD broth, 37°C, 24 h, OD 600 nm, read-out: Anti-Candida Activity (IC50± S.D.) C. albicans ATCC90028
Procedure: as §1

[2] = test system: C. albicans D27 (FLC-sensitive clinical isolate); experiment: Broth dilution IC50 determination; assay type: cell-based; settings: Candida albicans, 24 h; read-out: Anti-Candida Activity (IC50± S.D.) C. albicans D27
Procedure: as §1

ergosterol biosynthesis = experiment: Ergosterol estimation assay
[3] = test system: C. albicans D27 (FLC-susceptible); experiment: Growth assay (growth curve); assay type: cell-based; settings: sub-MIC (MIC/2)
Procedure: (§2) The C. albicans cells were freshly revived by subculture on the SD agar plate. A loopful of inoculum was introduced into the SD broth and cells were grown for 16 h at 37°C before use. Approximately 2×10^3 cells/mL were then inoculated into the freshly prepared 50 mL sterile SD medium. […] At predetermined time periods (0, 2, 4, 6, 8, 10, 12, 14, 16, 18, 20 22, and 24 after incubation with agitation at 37°C), 1 mL aliquot of each sample was removed from the conical flask and growth was measured tubidometrically at 600 nm using Thermo Multiskan spectrophotometer. Optical density was recorded for each concentration against time (h).

[4] = test system: C. albicans D15.9 (FLC-resistant); experiment: Growth assay (growth curve); assay type: cell-based; settings: sub-MIC (MIC/2)
Procedure: as §2

[5] = test system: C. albicans ATCC 90028 (Standard); experiment: Growth assay (growth curve); assay type: cell-based; settings: sub-MIC (MIC/2)
Procedure: as §2

Structure (SMILES)	IC50 (C. glabrata ATCC 90030) [mg/L]	IC50 [1] [mg/L]	IC50 (C. albicans ATCC 90028) [mg/L]	IC50 [2] [mg/L]	Mean decrease in total ergosterol content (ergosterol biosynthesis; above MIC/2, 16 h) [%]	Mean decrease in total ergosterol content (ergosterol biosynthesis; at MIC/4, 16 h) [%]	Time after which growth was observed [3] [h]	Time after which growth was observed [4] [h]	Time after which growth was observed [5] [h]	melting point [°C]	Decrease in total ergosterol content (ergosterol biosynthesis; at MIC, 16 h) [%]	Decrease in total ergosterol content (ergosterol biosynthesis; at MIC/2, 16 h) [%]
c1ccc(Cn2cc(COc3cccc4cccnc34)nn2)cc1 [Compound 3a]	12.02 ± 0.02 (≈ 38 µM)	3.3 ± 0.065 (≈ 10.4 µM)	0.044 ± 0.11 (≈ 0.139 µM)	1.9 ± 0.09 (≈ 6.01 µM)	100	30	–	–	–	–	–	–
Clc1ccc(OCc2cn(Cc3ccccc3)nn2)c2ncccc12 [Compound 3b, 8-((1-Benzyl-1H-1,2,3-triazol-4-yl)methoxy)-5-chloroquinoline]	73.3 ± 1.41 (≈ 209 µM)	41.5 ± 1.24 (≈ 118 µM)	25.4 ± 0.76 (≈ 72.4 µM)	33.7 ± 1.51 (≈ 96.1 µM)	–	23	18	14	20	148 to 149	100	98
